The record followed here is US5446043A, “Isoquinolyl, quinoxalinyl and quinazolinyl derivatives as inhibitors of 5-lipoxygenase” (Imperial Chemical Industries Plc, priority 1989, dated 1995).

For test [1], the target named is T1, 5-LO (Homo sapiens, UniProt P09917).
T1 construct: incubating a test compound with heparinised human blood, prior to challenge with the calcium ionophore A23187; endogenous in cells; host or cells: blood cells in heparinised human whole blood
T1 sequence (P09917 1-674): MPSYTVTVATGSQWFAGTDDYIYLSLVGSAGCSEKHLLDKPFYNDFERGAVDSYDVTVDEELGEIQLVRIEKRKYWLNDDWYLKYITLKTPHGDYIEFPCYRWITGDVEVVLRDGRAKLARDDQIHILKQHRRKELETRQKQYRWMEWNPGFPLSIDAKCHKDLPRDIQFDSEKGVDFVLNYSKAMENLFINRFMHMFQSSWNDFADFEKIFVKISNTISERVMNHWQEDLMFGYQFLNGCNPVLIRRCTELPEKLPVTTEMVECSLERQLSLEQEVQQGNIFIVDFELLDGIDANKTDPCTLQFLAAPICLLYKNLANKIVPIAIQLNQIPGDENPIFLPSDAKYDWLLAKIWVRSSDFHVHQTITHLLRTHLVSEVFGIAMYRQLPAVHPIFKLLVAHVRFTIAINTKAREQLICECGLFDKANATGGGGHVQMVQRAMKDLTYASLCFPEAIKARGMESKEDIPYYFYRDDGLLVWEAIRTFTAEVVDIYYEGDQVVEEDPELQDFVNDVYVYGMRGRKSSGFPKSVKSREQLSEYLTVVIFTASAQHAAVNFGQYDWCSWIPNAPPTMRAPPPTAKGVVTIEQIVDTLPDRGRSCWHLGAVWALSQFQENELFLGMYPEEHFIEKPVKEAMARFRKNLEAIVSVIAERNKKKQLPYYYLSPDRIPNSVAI
Briefly: Test b) heparinised human blood challenged with A23187, LTB4 radioimmunoassay (5-LO). Conditions: read-out: IC50 against LTB4. It counts as cell-based. As for the experimental part:
(§1) b) An in vitro assay system involving incubating a test compound with heparinised human blood, prior to challenge with the calcium ionophore A23187 and then indirectly measuring the inhibitory effects on 5-LO by assaying the amount of LTB4 using the specific radioimmunoassay described by Carey and Forder (F. Carey and R. A. Forder, Brit. J. Pharmacol. 1985, 84, 34P) which involves the use of a protein-LTB4 conjugate produced using the procedure of Young et alia (Prostaglandins, 1983, 26(4), 605-613). The effects of a test compound on the enzyme cyclooxygenase (which is involved in the alternative metabolic pathway for arachidonic acid .and gives rise to prostaglandins, thromboxanes and related metabolites) may be measured at the same time using the specific radioimmunoassay for thromboxane B2 (T×B2) described by Carey and Forder (see above). This test provides an indication of the effects of a test compound against 5-LO and also cyclooxgenase in the presence of blood cells and proteins. It permits the selectivity of the inhibitory effect on 5-LO or cyclooxygenase to be assessed.

The target in the next test is T2, cyclooxygenase (Homo sapiens, UniProt P23219).
T2 construct: incubating a test compound with heparinised human blood, prior to challenge with the calcium ionophore A23187; endogenous in cells; host or cells: blood cells (chiefly platelets, own knowledge) in heparinised human whole blood
Briefly: Test b) heparinised human blood challenged with A23187, TxB2 radioimmunoassay (cyclooxygenase). It counts as cell-based. The note with it: A23187, T×B2. On the procedure: as §1

Test [2] deals with 5-LO. The experiment in a line: Test c) ex vivo assay: administration of compound, blood collection, A23187 challenge, LTB4 radioimmunoassay. It counts as in vivo. On the procedure:
c) An ex vivo assay system, which is a variation of test b) above, involving administration of a test compound (usually orally as the suspension produced when a solution of the test compound in dimethylsulphoxide is added to carboxymethylcellulose), blood collection, heparinisation, challenge with A23187 and radioimmunoassay of LTB4 and T×B2. This test provides an indication of the bioavailability of a test compound as an inhibitor of 5-LO or cyclooxygenase.

Some results are limits rather than exact numbers.

T2 sequence (P23219 24-599): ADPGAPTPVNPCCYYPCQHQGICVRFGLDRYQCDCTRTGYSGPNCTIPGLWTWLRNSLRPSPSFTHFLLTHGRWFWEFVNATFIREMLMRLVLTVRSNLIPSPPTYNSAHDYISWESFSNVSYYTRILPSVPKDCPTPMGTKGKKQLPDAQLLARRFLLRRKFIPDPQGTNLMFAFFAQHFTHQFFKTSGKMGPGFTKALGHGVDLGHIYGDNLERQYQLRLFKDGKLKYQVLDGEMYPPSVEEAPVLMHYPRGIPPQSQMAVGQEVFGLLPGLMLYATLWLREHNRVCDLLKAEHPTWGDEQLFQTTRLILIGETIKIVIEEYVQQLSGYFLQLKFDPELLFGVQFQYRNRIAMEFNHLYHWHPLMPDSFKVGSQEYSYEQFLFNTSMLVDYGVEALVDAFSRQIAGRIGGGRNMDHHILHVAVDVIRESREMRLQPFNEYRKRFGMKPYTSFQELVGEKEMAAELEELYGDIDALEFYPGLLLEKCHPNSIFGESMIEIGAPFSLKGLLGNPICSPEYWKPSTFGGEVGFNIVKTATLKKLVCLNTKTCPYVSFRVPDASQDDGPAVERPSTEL

On to `CO[C@H]1CCC[C@@]1(OC)c1cccc(OCC#Cc2ccccn2)c1` (relative stereo) [trans-1,2-dimethoxy-1-[3-(3-(2-pyridyl)prop-2-yn-1-yloxy)phenyl]-cyclopentane], for which the figures for the half-inhibitory concentration (IC50) at 5-LO [1] and at cyclooxygenase were 8 µM and greater than 40 µM, respectively. Moreover, the “oral ED50 against LTB4” value in the test on 5-LO [2] was less than 100 mg/k.
